Data set [1] concerns TNF-α production from human whole blood. Kind of data set: Inhibition of TNF-α production from human whole blood (hWBA). It is filed as cell-based. The conditions noted are these: human whole blood diluted 1:1, 1 h pre-incubation, LPS, 3.5 h, TNF-α by ELISA; N/A = Not Active. How it is done: The compounds' ability to inhibit TACE activity can also be determined in human whole blood using the assay conditions described n Example 15 below.
Human whole blood was diluted 1:1 with serum free medium (RPMI, L-glutamine, Pen-Strep, HEPES) and incubated with a test compound in a final volume of 360 μl for 1 h at 37° C. Forty microliters of LPS (10 μg/mL) was then added. Supernatant was collected after 3.5 h incubation and the concentration of TNF-α was determined by ELISA (R&D Systems). The concentration of the test compound which inhibits 50% of the amount of TNF-α from the untreated control was determined.
On the technique in general: ELISA stands for enzyme-linked immunosorbent assay.

A short description of data set [2]: Area under the curve determinations of plasma levels in rats (rrAUC). The format is in vivo. The conditions noted are these: rapid rat AUC of the drug (parent) in plasma; oral 10 mg/kg, fasted rats, blood 0.5-6 h post-dosing. How it is done: To gain insight into the pharmacokinetic properties of the compounds of formula (I), plasma levels of the compounds in rats were determined according to the protocol described in Korfmacher, W. A,; Cox, K. A.; Ng, K. J.; Veals, J.; Hsieh, Y.; Wainhaus, S.; Broske, L; Prelusky, D.; Nomeir, A.; White, R. E. Rapid Commun. Mass Spectrorn, 2001, 15, 335. Briefly, rats, after an overnight fast, were dosed orally with the test compound at a dose of 10 mg/kg in a 5 mL/kg dose volume. Blood was collected at 0.5, 1, 2, 3, 4, and 6 h post-dosing. Mass spectrometry using high performance liquid chromatography was used to identify and measure the concentrations of the test compounds in the plasma at the various time points. The parent ion of each test compound was used to identify and quantitate the compounds in plasma.

The term IC50 denotes the midpoint of a concentration-inhibition curve. Lower therefore signals greater potency. As to `COc1ccc2c(c1)C(=O)N(C[C@@]1(C#Cc3ccc(N4CCNCC4)cc3)NC(=O)N(COC(=O)C(C)(C)C)C1=O)C2` [Compound 25], half-maximal inhibition in data set [1] (IC50) required 212 nM. The “PK (rrAUC) parent” value in data set [2] amounted to 0 µM·h.

As to `CCOC(=O)[C@H](C)OC(=O)OCN1C(=O)N[C@@](CN2Cc3ccc(OC)cc3C2=O)(c2cc3cnccc3o2)C1=O` [Compound 63.2], the IC50 in data set [1] is 738 nM. In addition, the “PK (rrAUC) parent” value in data set [2] amounted to 0 µM·h.

`COc1ccc2c(c1)C(=O)N(C[C@@]1(c3cc4cnccc4o3)NC(=O)N(COC(=O)N3CCN(C)CC3)C1=O)C2` [Compound 68] displayed an IC50 in data set [1] of 1310 nM. In addition, the “PK (rrAUC) parent” value in data set [2] stood at 13.539 µM·h.

As for `COc1ccc2c(c1)C(=O)N(C[C@@]1(c3cc4nc(N5C(=O)CCC5C)ccc4o3)NC(=O)N(COC(=O)C(C)(C)C)C1=O)C2` (stereo partly shown) [Compound 10], inhibition in data set [1] was half-maximal at 266 nM (IC50). In addition, the “PK (rrAUC) parent” value in data set [2] is 1.202 µM·h.

In the case of `COc1ccc2c(c1)C(=O)N(C[C@@]1(c3cc4cnccc4o3)NC(=O)N(COC(=O)C(C)(C)C)C1=O)C2` [Compound 2], it took 273 nM to reach half-maximal inhibition in data set [1] (IC50). The “PK (rrAUC) parent” value in data set [2] was found to be 13.539 µM·h.

In data set [1], `CCOc1ccc2c(c1F)C(=O)N(C[C@@]1(c3cc4nc(N5CCN(CC)CC5)ccc4o3)NC(=O)N(COC(=O)C(C)(C)C)C1=O)C2` [Compound 39] came in with an IC50 of 241 nM. Besides, the “PK (rrAUC) parent” value in data set [2] stood at 0.927 µM·h.

Regarding `COc1ccc2c(c1F)C(=O)N(C[C@@]1(c3cc4cc(-c5cc(=O)[nH]c(N)n5)ccc4o3)NC(=O)N(COC(=O)C(C)(C)C)C1=O)C2` [Compound 29], half-maximal inhibition in data set [1] (IC50) required 199 nM. In addition, the “PK (rrAUC) parent” value in data set [2] was 0 µM·h.

Take `COc1ccc2c(c1F)C(=O)N(C[C@@]1(C#Cc3ccc(-c4nc(-c5cnn(C)c5)ccc4OC(=O)C(C)(C)C)c(F)c3)NC(=O)N(COC(=O)C(C)(C)C)C1=O)C2` [Compound 44]: the IC50 in data set [1] turned out to be 281 nM. Further, the “PK (rrAUC) parent” value in data set [2] was determined as 0 µM·h.

With `COc1ccc2c(c1F)C(=O)N(C[C@@]1(c3cc4nc(N5C[C@@H](O)CC5=O)ccc4o3)NC(=O)N(COC(=O)C(C)(C)C)C1=O)C2` [Compound 38], inhibition in data set [1] was half-maximal at 94 nM (IC50). Also, in data set [2], the “PK (rrAUC) parent” value worked out at 1.736 µM·h.

With `COc1ccc2c(c1)C(=O)N(C[C@@]1(c3cc4cnccc4o3)NC(=O)N(COC(=O)OCC3COCO3)C1=O)C2` (stereo partly shown) [Compound 63.1], half-maximal inhibition in data set [1] (IC50) required 449 nM. The “PK (rrAUC) parent” value in data set [2] was found to be 0 µM·h.

In data set [1], `COc1ccc2c(c1F)C(=O)N(C[C@@]1(c3cc4nc(N5CCNC(=O)C5)ccc4o3)NC(=O)N(COC(=O)C(C)(C)C)C1=O)C2` [Compound 5] had an IC50 of 104 nM. In addition, in data set [2], the “PK (rrAUC) parent” value amounted to 0.121 µM·h.

Take `COc1ccc2c(c1)C(=O)N(C[C@@]1(C#Cc3ccc(-c4nc(-c5cnn(C)c5)ccc4OC(=O)C(C)(C)C)cc3)NC(=O)N(COC(=O)C(C)(C)C)C1=O)C2` [Compound 43]: in data set [1], the IC50 was 336 nM. Also, in data set [2], the “PK (rrAUC) parent” value amounted to 0 µM·h.

`COc1ccc2c(c1F)C(=O)N(C[C@@]1(c3cc4cc5c(c(F)c4o3)C(=O)NC5)NC(=O)N(COC(=O)c3ccccc3)C1=O)C2` [Compound 64] showed an IC50 in data set [1] of 169 nM. Besides, in data set [2], the “PK (rrAUC) parent” value worked out at 5.393 µM·h.

In data set [1], `COc1ccc2c(c1F)C(=O)N(C[C@@]1(c3cc4nc(N)ccc4o3)NC(=O)N(COC(=O)C(C)(C)C)C1=O)C2` [Compound 18] showed an IC50 of 178 nM. Also, the “PK (rrAUC) parent” value in data set [2] turned out to be 0.351 µM·h.

Turning to `COc1ccc2c(c1)C(=O)N(C[C@@]1(c3cc4cc(-c5cc(=O)[nH]c(N)n5)cnc4o3)NC(=O)N(COC(=O)C(C)(C)C)C1=O)C2` [Compound 33], it took 375 nM to reach half-maximal inhibition in data set [1] (IC50). The “PK (rrAUC) parent” value in data set [2] is 0 µM·h.

On to `COc1ccc2c(c1)C(=O)N(C[C@@]1(c3cc4nc(N5CCNCC5)ccc4o3)NC(=O)N(COC(=O)C(C)(C)C)C1=O)C2` [Compound 28], for which it took 156 nM to reach half-maximal inhibition in data set [1] (IC50). Moreover, in data set [2], the “PK (rrAUC) parent” value came to 0 µM·h.

`COc1ccc2c(c1)C(=O)N(C[C@]1(c3cc4cnccc4o3)C(=O)N(COC(=O)OCC3COCO3)C(=O)N1C(=O)OCC1COCO1)C2` (stereo partly shown) [Compound 86] displayed an IC50 in data set [1] of 5410 nM. The “PK (rrAUC) parent” value in data set [2] came out at 0.056 µM·h.

Values taken from patent US8859529B2, “Compounds for the treatment of inflammatory disorders” (Merck Sharp & Dohme Corp., priority 2008, dated 2014).
